From patent US5322847A, “Azabenzimidazoles in the treatment of asthma, arthritis and related diseases” (Pfizer Inc., priority 1992, dated 1994)

Tests used:
[1] = target: T1, PAF receptor sites on rabbit platelet homogenate (Oryctolagus cuniculus, UniProt G1TEI7); assay: platelet activating factor (PAF) receptor assay; assay type: binding; settings: radioligand 3H-PAF; constant used in Ki=(IC50)/[1+(L/Kd)]; 25° C., sodium-free buffer +0.25% BSA; read-out: Kd (dissociation constant)
T1 construct: specific PAF receptor sites on rabbit platelet homogenate; tissue Rockland, Inc., Gilbertsville, Pa; (rabbit blood mixture); host or cells: platelets from blood of normal New Zealand white rabbits, freeze-thawed homogenate
T1 sequence (G1TEI7 1-342): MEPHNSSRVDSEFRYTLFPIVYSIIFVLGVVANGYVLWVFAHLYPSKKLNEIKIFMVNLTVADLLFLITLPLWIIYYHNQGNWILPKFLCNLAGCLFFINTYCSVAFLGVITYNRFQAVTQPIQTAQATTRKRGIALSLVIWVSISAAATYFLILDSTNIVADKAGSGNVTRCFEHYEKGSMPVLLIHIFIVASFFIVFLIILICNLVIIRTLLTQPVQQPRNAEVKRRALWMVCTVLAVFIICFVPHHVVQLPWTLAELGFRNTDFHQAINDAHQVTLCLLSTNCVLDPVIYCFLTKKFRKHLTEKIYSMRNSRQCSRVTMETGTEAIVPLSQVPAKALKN
Description: The platelet activating factor (PAF) receptor assay tests the ability of a compound to compete with radiolabeled PAF for specific PAF receptor sites on rabbit platelet homogenate.
Five hundred milliliters of a rabbit blood mixture is purchased from Rockland, Inc., Gilbertsville, Pa. The blood mixture is 4 parts blood: 1 part 4% sodium citrate (v/v), and is obtained by heart puncture from normal, approximately 8-month old New Zealand white rabbits. The blood mixture is delivered overnight on wet ice (approx. 8° C.).
The blood mixture is centrifuged at 514 g for 10 minutes. The supernatant platelet-rich plasma is gently laid over Ficoll-Paque (Pharmacia) at a ratio of 9 parts plasma:2 parts Ficoll (v/v) The plasma/Ficoll mixture is centrifuged at 856 g for 20 minutes. […] Protein concentration of the suspension is determined by a Bio-Rad assay. […]
The reaction tubes are incubated at 25° C. for 45 minutes. […] The vial is capped, vortexed and counted for 3H.
Percent specific binding is calculated using the formula
Percent specific binding is graphed as a function of compound concentration. […] Alternatively, the IC50 is calculated using the logistic dose-response (Hill plot) option of the VAX Biostat utility. The inhibitory constant (Ki) is calculated by using the formula […]

[2] = system: PAF lethality in CDl male mice; assay: PAF lethality assay; assay type: in vivo; settings: Mus musculus; positive control; oral dosing 45 minutes before i.v. PAF injection; read-out: approximate ED 50
Experimental: To evaluate the compounds of the formula (I) in vivo, they are tested by the so-called PAF lethality assay procedure:
Mice: CDl males, all approximately the same weight (approximately 26 grams), 12 per group.
Vehicle for oral drug dosing: EES (5% ethanol, 5% emulphor, 90% saline). Stored at room temperature.
Drugs: For routine screening at 50 mg/kg, 20 mg drug is dissolved in 4 ml EES, using sonication in a sonicator bath or grinding in a Ten Broeck grinder to dissolve drug if necessary. If solubility is still a problem, the drug is used as a suspension.
Vehicle for i.v. Injection: Saline with 2.5 mg/ml Bovine Serum Albumin (BSA, Sigma #A4378) and 0.05 mg/ml Propranolol (Sigma #PO884). Prepared fresh daily and kept at room temperature.
Platelet Activating Factor (PAF): A […] stock solution is prepared by dissolving 1 mg PAF (Calbiochem #429460) in 0.18 ml ethanol. This is stored at -20° C. and is diluted in vehicle (see above) the day of use. The concentration of PAF used is calibrated so that when injected at 0.1 ml/10 grams body weight, it will kill approximately 80% of untreated controls. This is usually about […] (a 1 to 2034 dilution from stock). […]
Method: 45 minutes before PAF injection, mice are treated orally with drug using 0.1 ml/10 grams body weight. […] Results are expressed as percent mortality as compared to controls. […]

| SMILES | Kd [1] | ED50 [2] |
| --- | --- | --- |
| CCCCCCCCCCCCCCCCOCC(COP(=O)([O-])OCC[N+](C)(C)C)OC(C)=O (centres unmarked) [Example 3H-PAF] | 830 pM | – |
| O=C1CCN(c2ccccc2)N1 [Phenidone] | – | ~25 mg/kg |
